Molecular target: T1, human NHE-1 (Homo sapiens, UniProt P19634)
T1 construct: expressed in transfected cells; host or cells: fibroblasts stably expressing human NHE-1 (cell line per Counillon et al., Mol. Pharmacol. 44:1041-1045, 1993)
Experiment: Measurement of human NHE-1 inhibitory activity (NHE-mediated recovery of intracellular pH after acidification, BCECF fluorescence)
Type: cell-based
Conditions: fibroblasts stably expressing human NHE-1
Description: Methodologies for measurement of human NHE-1 activity and inhibitor potency are based on those published by Watson et al., Am. J. Physiol., 24:G229-G238, 1991), where NHE-mediated recovery of intracellular pH is measured following intracellular acidification. Thus, fibroblasts stably expressing human NHE-1 (Counillon, L. et al., Mol. Pharmacol., 44:1041-1045 (1993) are plated onto collagen coated 96 well plates (50,000/well) and grown to confluence in growth media (DMEM high glucose, 10% fetal bovine serum, 50 u/ml penicillin and streptomycin). Confluent plates are incubated for 30 min at 37° C. with the pH sensitive fluorescent probe BCECF (5 μM; Molecular Probes, Eugene, Oreg.). BCECF loaded cells are incubated for 30 min at 37° C. in acid loading media (70 mM choline chloride, 50 mM NHCl4, 5 mM KCl, 1 mM MgCl2, 1.8 mM CaCl2, 5 mM glucose, 10 mM HEPES, pH 7.5), and then placed in a Fluorescent Imaging Plate Reader (Molecular Devices, CA). BCECF fluorescence is monitored using excitation and emission wavelengths of 485 nm and 525 nM, respectively. Intracellular acidification is initiated via rapid replacement of acid loading media with recovery media (120 mM NaCl, 5 mM KCl, 1 mM MgCl2, 1.8 mM CaCl2, 5 mM glucose, 10 mM HEPES, pH 7.5)±test compound, and NHE-mediated recovery of intracellular pH is monitored as the subsequent time-dependent increase BCECF fluorescence.

T1 sequence (P19634 whole entry): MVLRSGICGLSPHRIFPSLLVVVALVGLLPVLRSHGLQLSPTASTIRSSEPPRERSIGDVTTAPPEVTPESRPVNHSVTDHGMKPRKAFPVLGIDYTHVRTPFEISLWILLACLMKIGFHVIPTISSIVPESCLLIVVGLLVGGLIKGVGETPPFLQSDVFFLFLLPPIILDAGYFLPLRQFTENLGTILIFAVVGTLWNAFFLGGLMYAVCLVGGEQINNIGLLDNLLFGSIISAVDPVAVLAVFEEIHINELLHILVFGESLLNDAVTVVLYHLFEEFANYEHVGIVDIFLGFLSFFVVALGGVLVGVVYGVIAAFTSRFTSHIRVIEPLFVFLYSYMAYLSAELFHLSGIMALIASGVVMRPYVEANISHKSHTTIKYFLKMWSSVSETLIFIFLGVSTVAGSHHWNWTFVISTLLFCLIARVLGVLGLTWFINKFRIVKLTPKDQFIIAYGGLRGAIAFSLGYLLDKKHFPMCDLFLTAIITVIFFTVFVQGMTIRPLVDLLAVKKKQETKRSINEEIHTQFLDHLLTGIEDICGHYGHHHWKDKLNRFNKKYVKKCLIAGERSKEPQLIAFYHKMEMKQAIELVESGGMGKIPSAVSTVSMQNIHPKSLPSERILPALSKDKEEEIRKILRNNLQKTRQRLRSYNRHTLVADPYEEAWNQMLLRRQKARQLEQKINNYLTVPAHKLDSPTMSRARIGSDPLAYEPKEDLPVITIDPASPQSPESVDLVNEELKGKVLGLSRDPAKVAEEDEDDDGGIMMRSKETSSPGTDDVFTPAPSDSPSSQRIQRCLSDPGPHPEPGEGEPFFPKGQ

Molecule `CC(C)c1ccc(C(=O)NC(=N)N)cc1S(C)(=O)=O` [HOE-642] has an IC50 of 500 nM.
